# Results: patent US11065277B2, “Method of ameliorating side effects of sickle cell disease treatments” (ALBERT EINSTEIN COLLEGE OF MEDICINE, priority 2015, dated 2021)
# Entries after “also recorded” stand apart in the source; their conditions may differ.
# Tests used:
# BERK mice [1] = assay: Intravital microscopy of the systemic circulation (shear rate, volumetric flow rate, leukocyte adhesion, sickling); format: in vivo, mouse
# BERK mice [2] = assay: Cerebral blood flow (CBF) after treatment; format: in vivo, mouse
# BERK mice [3] = assay: BOLD-RHO (BOLD MRI response to hyperoxia, gray matter); format: in vivo, mouse
# Protocol: BL=baseline, PI=post injection. […] Using BOLD MRI imaging (which is sensitive to the tissue concentration of deoxy-Hb) the sufficiency of oxygenation of cerebral tissues was measured by assessing the change in deoxy-Hb which occurs with administration of a short inhalation bolus of 100% O2.
# [4] = Plasma level after 10% top load infusion; format: in vivo, mouse; details: low gamma BERK mice, infusion of 6 gm % solution at 10% top load
# Description: Infusion of a 6 gm % solution EAF P3K6 Hb to a low gamma BERK mice at 10% top load results in a presence of 0.3 gm/dl EAF P3K6 Hb in the plasma, the HbS in the RBC being 8 gm/dl.
# BERK low gamma [5] = assay: Systemic vaso-occlusion and systemic flow in low gamma BERK; format: in vivo, mouse
# Description: (§1) Just as with supra-perfusion therapy, a sickle therapy induced toxicity is apparent in the quercetin-based antioxidant therapy of sickle cell disease. […] However, this nearly complete clearance of the vaso-occlusion appears to induces a toxicity to such treated low gamma BERK, as the animal die after six to eight hrs. after infusing quercetin. Accordingly, it was concluded that antisickling, or antioxidant or antiadhesive therapies, need to be combined with anti-anemia therapy to protect the brain tissues from hypoxic effects as the systemic perfusion is improved as vasoconstrictive effects are reduced.
# (§2) A lower dosage of the therapeutic that only marginally reduces the severity of the disease as reflected by systemic vaso-occlusion can still moderate the severity of the disease to some degree without creating an oxygen debt in the brain (i.e. the pathology of the disease as reflected by CBF and BOLD, in an organ specific manner).
# BERK low gamma [6] = details: mouse, in vivo, ip
# Description: as §1, §2
# [7] = BERK mice, post injection vs baseline, 10% top-load
# [8] = low gamma BERK, single dose 20 mg/kg intraperitoneally, three hrs. after infusion
# [9] = BERK low gamma, 50 mg/kg intraperitoneal three times a week
# [10] = low gamma BERK, daily oral dosing 100/mg per/kg for 10 days
molecule,measurement,setting,value
"EAF-PEG-Hb: extension arm facilitated hemoglobin molecule having 6 molecules of 3,000 mw polyethylene glycol (PEG) attached thereto",Volumetric flow rate / systemic (peripheral) tissue blood flow,"BERK mice [1]; BERK / sickle transgenic mice, after 10% topload",still increased
same,Leukocyte adhesion in systemic post capillary venules,"BERK mice [1]; sickle transgenic animals, systemic circulation",still reduced
same,CBF,BERK mice [2]; [7],drop in CBF; also recorded: decreased
same,CBF,"BERK mice [2]; low gamma BERK mice, 6 gm % solution at 10% top load",normalize the CBF
same,"BOLD-RHO (hypoxic stress, brain deoxy-Hb response to hyperoxia)",BERK mice [3]; [7],No drop in brain deoxy-Hb was detected; also recorded: protected against the decrease in CBF
same,presence in the plasma,[4],0.3 gm/dl
"O=c1c2cc(O)c(O)cc2oc2cc(O)c([C@@H]3O[C@H](CO)[C@@H](O)[C@H](O)[C@H]3O)c(O)c12 [mangiferine, reference compound]",therapeutic efficacy for SCD (vaso-occlusion),BERK low gamma [5]; BERK low gamma,not seen
"NC(=O)NO [hydroxy urea, reference compound]",expression of fetal Hb,BERK low gamma [5]; [8],without any expression
same,systemic flow,BERK low gamma [5]; [8],significant improvement
same,vaso-occlusion,BERK low gamma [5]; [8],level close to that of medium gamma BERK
"O=c1c(O)c(-c2ccc(O)c(O)c2)oc2cc(O)cc(O)c12 [quercetin, 2-(3,4-dihydroxyphenyl)-3,5,7-trihydroxy-4H-chromen-4-one]",influence on CBF,BERK mice [2]; [9],very little influence
same,influence on CBF,BERK mice [2]; [10],without any significant influence
same,influence on BOLD,BERK mice [3]; [10],without any significant influence
same,therapeutic efficacy for SCD (vaso-occlusion),BERK low gamma [5]; BERK low gamma,dose dependent
same,vaso-occlusion,BERK low gamma [5]; [9],small attenuation
same,vaso-occlusion,"BERK low gamma [5]; BERK low gamma, 200 mg/kg intraperitoneal, measured 3 hrs after infusion",nearly completely attenuated
same,improvement of systemic circulation,BERK low gamma [5]; [10],60 to 70%
same,toxicity to animals,BERK low gamma [6]; 50 mg/kg,not toxic
same,time of death after infusing,BERK low gamma [6]; 200 mg/kg,six to eight
